# Laboratory results taken from PubChem BioAssay (NCI).
#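 Following 48 hours of exposure in 96-well plates, responses at five concentrations were used to interpolate endpoints linearly. TGI: concentration producing complete growth inhibition.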
# Key:
# Assay in all cases: DTP human tumour cell line panel, 48 h
# HCC-2998 colon = tested on: HCC-2998 colon
# U251 CNS = tested on: U251 CNS
# 786-0 renal = tested on: 786-0 renal
# ACHN renal = tested on: ACHN renal
# OVCAR-8 ovarian = tested on: OVCAR-8 ovarian
# RXF-631 renal = tested on: RXF-631 renal
# NCI-H226 lung = tested on: NCI-H226 lung
# DMS 114 small cell lung = tested on: DMS 114 small cell lung
# A549 NSCLC = tested on: A549 NSCLC
# K-562 leukemia = tested on: K-562 leukemia
# SF-268 CNS = tested on: SF-268 CNS
# HL-60(TB) leukemia = tested on: HL-60(TB) leukemia
# SNB-75 CNS = tested on: SNB-75 CNS
# UO-31 renal = tested on: UO-31 renal
# NCI-H460 lung = tested on: NCI-H460 lung
# HOP-18 NSCLC = tested on: HOP-18 NSCLC
# M14 melanoma = tested on: M14 melanoma
# HOP-92 NSCLC = tested on: HOP-92 NSCLC
# RXF 393 renal = tested on: RXF 393 renal
# SF-295 CNS = tested on: SF-295 CNS
# SNB-78 CNS = tested on: SNB-78 CNS
# CAKI-1 renal = tested on: CAKI-1 renal
# EKVX NSCLC = tested on: EKVX NSCLC
# XF 498 CNS = tested on: XF 498 CNS
# HCT-116 colon = tested on: HCT-116 colon
# SK-MEL-28 melanoma = tested on: SK-MEL-28 melanoma
# MOLT-4 leukemia = tested on: MOLT-4 leukemia
# HOP-62 NSCLC = tested on: HOP-62 NSCLC
# KM20L2 colon = tested on: KM20L2 colon
# SN12C renal = tested on: SN12C renal
# IGROV1 ovarian = tested on: IGROV1 ovarian
# LXFL 529 NSCLC = tested on: LXFL 529 NSCLC
# OVCAR-4 ovarian = tested on: OVCAR-4 ovarian
# HCT-15 colon = tested on: HCT-15 colon
# A498 renal = tested on: A498 renal
# SW-620 colon = tested on: SW-620 colon
# SK-OV-3 ovarian = tested on: SK-OV-3 ovarian
# LOX IMVI melanoma = tested on: LOX IMVI melanoma
# OVCAR-3 ovarian = tested on: OVCAR-3 ovarian
# RPMI-8226 leukemia = tested on: RPMI-8226 leukemia
# NCI-H522 lung = tested on: NCI-H522 lung
# UACC-257 melanoma = tested on: UACC-257 melanoma
# SNB-19 CNS = tested on: SNB-19 CNS
# DLD-1 colon = tested on: DLD-1 colon
# SF-539 CNS = tested on: SF-539 CNS
# TK-10 renal = tested on: TK-10 renal
# SR leukemia = tested on: SR leukemia
# NCI-H23 lung = tested on: NCI-H23 lung
# CCRF-CEM leukemia = tested on: CCRF-CEM leukemia
# SK-MEL-2 melanoma = tested on: SK-MEL-2 melanoma
# DMS 273 small cell lung = tested on: DMS 273 small cell lung
# M19-MEL melanoma = tested on: M19-MEL melanoma
# MALME-3M melanoma = tested on: MALME-3M melanoma
# SK-MEL-5 melanoma = tested on: SK-MEL-5 melanoma
# HT29 colon = tested on: HT29 colon
# COLO 205 colon = tested on: COLO 205 colon
# OVCAR-5 ovarian = tested on: OVCAR-5 ovarian
# KM12 colon = tested on: KM12 colon
# UACC-62 melanoma = tested on: UACC-62 melanoma
smiles,measurement,setting,value
CNC(=S)NC(=S)N(C)C,TGI,HCC-2998 colon,> 100 µM
same,TGI,U251 CNS,> 100 µM
same,TGI,786-0 renal,> 100 µM
same,TGI,ACHN renal,> 100 µM
same,TGI,OVCAR-8 ovarian,> 100 µM
same,TGI,RXF-631 renal,> 100 µM
same,TGI,NCI-H226 lung,> 100 µM
same,TGI,DMS 114 small cell lung,> 100 µM
same,TGI,A549 NSCLC,> 100 µM
same,TGI,K-562 leukemia,> 100 µM
same,TGI,SF-268 CNS,> 100 µM
same,TGI,HL-60(TB) leukemia,20 µM
same,TGI,SNB-75 CNS,> 100 µM
same,TGI,UO-31 renal,> 100 µM
same,TGI,NCI-H460 lung,> 100 µM
same,TGI,HOP-18 NSCLC,> 100 µM
same,TGI,M14 melanoma,> 100 µM
same,TGI,HOP-92 NSCLC,> 100 µM
same,TGI,RXF 393 renal,> 100 µM
same,TGI,SF-295 CNS,> 100 µM
same,TGI,SNB-78 CNS,> 100 µM
same,TGI,CAKI-1 renal,> 100 µM
same,TGI,EKVX NSCLC,> 100 µM
same,TGI,XF 498 CNS,> 100 µM
same,TGI,HCT-116 colon,> 100 µM
same,TGI,SK-MEL-28 melanoma,> 100 µM
same,TGI,MOLT-4 leukemia,> 100 µM
same,TGI,HOP-62 NSCLC,> 100 µM
same,TGI,KM20L2 colon,> 100 µM
same,TGI,SN12C renal,> 100 µM
same,TGI,IGROV1 ovarian,> 100 µM
same,TGI,LXFL 529 NSCLC,> 100 µM
same,TGI,OVCAR-4 ovarian,> 100 µM
same,TGI,HCT-15 colon,> 100 µM
same,TGI,A498 renal,> 100 µM
same,TGI,SW-620 colon,> 100 µM
same,TGI,SK-OV-3 ovarian,> 100 µM
same,TGI,LOX IMVI melanoma,> 100 µM
same,TGI,OVCAR-3 ovarian,> 100 µM
same,TGI,RPMI-8226 leukemia,> 100 µM
same,TGI,NCI-H522 lung,> 100 µM
same,TGI,UACC-257 melanoma,> 100 µM
same,TGI,SNB-19 CNS,> 100 µM
same,TGI,DLD-1 colon,> 100 µM
same,TGI,SF-539 CNS,> 100 µM
same,TGI,TK-10 renal,> 100 µM
same,TGI,SR leukemia,> 100 µM
CCC1(O)C(=O)OCc2c1cc1n(c2=O)Cc2cc3ccc(CO)cc3nc2-1 (centres undefined),TGI,HCC-2998 colon,> 80.2 µM
same,TGI,U251 CNS,5.04 µM
same,TGI,786-0 renal,7.51 µM
same,TGI,ACHN renal,11 µM
same,TGI,OVCAR-8 ovarian,> 41.3 µM
same,TGI,RXF-631 renal,> 100 µM
same,TGI,NCI-H226 lung,6.58 µM
same,TGI,DMS 114 small cell lung,> 100 µM
same,TGI,A549 NSCLC,> 100 µM
same,TGI,K-562 leukemia,> 100 µM
same,TGI,NCI-H23 lung,10.2 µM
same,TGI,SF-268 CNS,> 100 µM
same,TGI,HL-60(TB) leukemia,> 27 µM
same,TGI,SNB-75 CNS,9.77 µM
same,TGI,CCRF-CEM leukemia,0.987 µM
same,TGI,UO-31 renal,17 µM
same,TGI,NCI-H460 lung,22.5 µM
same,TGI,HOP-18 NSCLC,> 93.9 µM
same,TGI,M14 melanoma,33.1 µM
same,TGI,HOP-92 NSCLC,> 87.3 µM
same,TGI,SK-MEL-2 melanoma,64.5 µM
same,TGI,RXF 393 renal,> 44 µM
same,TGI,SF-295 CNS,> 79.3 µM
same,TGI,DMS 273 small cell lung,11.1 µM
same,TGI,M19-MEL melanoma,54 µM
same,TGI,CAKI-1 renal,23.5 µM
same,TGI,EKVX NSCLC,> 100 µM
same,TGI,XF 498 CNS,16.8 µM
same,TGI,HCT-116 colon,31.1 µM
same,TGI,SK-MEL-28 melanoma,> 100 µM
same,TGI,MALME-3M melanoma,59.9 µM
same,TGI,SK-MEL-5 melanoma,11.3 µM
same,TGI,HOP-62 NSCLC,2.56 µM
same,TGI,KM20L2 colon,> 69.9 µM
same,TGI,SN12C renal,> 28.8 µM
same,TGI,IGROV1 ovarian,> 77.4 µM
same,TGI,HT29 colon,> 81.4 µM
same,TGI,LXFL 529 NSCLC,> 100 µM
same,TGI,COLO 205 colon,52.3 µM
same,TGI,OVCAR-4 ovarian,> 100 µM
same,TGI,HCT-15 colon,> 100 µM
same,TGI,A498 renal,24.5 µM
same,TGI,OVCAR-5 ovarian,78.5 µM
same,TGI,SW-620 colon,> 100 µM
same,TGI,SK-OV-3 ovarian,> 100 µM
same,TGI,LOX IMVI melanoma,12.5 µM
same,TGI,OVCAR-3 ovarian,24.4 µM
same,TGI,RPMI-8226 leukemia,> 37.3 µM
same,TGI,KM12 colon,> 100 µM
same,TGI,NCI-H522 lung,26.8 µM
same,TGI,UACC-257 melanoma,> 100 µM
same,TGI,SNB-19 CNS,> 100 µM
same,TGI,DLD-1 colon,> 100 µM
same,TGI,SF-539 CNS,4.51 µM
same,TGI,TK-10 renal,> 100 µM
same,TGI,SR leukemia,0.298 µM
same,TGI,UACC-62 melanoma,7.34 µM
FC(F)(F)c1cccc2ns[s+]c12,TGI,HCC-2998 colon,> 100 µM
same,TGI,U251 CNS,> 100 µM
same,TGI,786-0 renal,> 100 µM
same,TGI,ACHN renal,> 100 µM
same,TGI,OVCAR-8 ovarian,> 100 µM
same,TGI,RXF-631 renal,> 100 µM
same,TGI,NCI-H226 lung,> 100 µM
same,TGI,A549 NSCLC,> 100 µM
same,TGI,K-562 leukemia,> 100 µM
same,TGI,NCI-H23 lung,> 100 µM
same,TGI,SF-268 CNS,> 100 µM
same,TGI,HL-60(TB) leukemia,> 100 µM
same,TGI,SNB-75 CNS,> 100 µM
same,TGI,CCRF-CEM leukemia,> 100 µM
same,TGI,UO-31 renal,> 100 µM
same,TGI,NCI-H460 lung,> 100 µM
same,TGI,HOP-18 NSCLC,> 100 µM
same,TGI,M14 melanoma,> 100 µM
same,TGI,SK-MEL-2 melanoma,> 100 µM
same,TGI,RXF 393 renal,> 100 µM
same,TGI,SF-295 CNS,> 100 µM
same,TGI,SNB-78 CNS,> 100 µM
same,TGI,DMS 273 small cell lung,> 100 µM
same,TGI,M19-MEL melanoma,> 100 µM
same,TGI,CAKI-1 renal,> 100 µM
same,TGI,EKVX NSCLC,> 100 µM
same,TGI,XF 498 CNS,> 100 µM
same,TGI,HCT-116 colon,> 100 µM
same,TGI,SK-MEL-28 melanoma,> 100 µM
same,TGI,MOLT-4 leukemia,> 100 µM
same,TGI,MALME-3M melanoma,> 100 µM
same,TGI,SK-MEL-5 melanoma,> 100 µM
same,TGI,HOP-62 NSCLC,> 100 µM
same,TGI,KM20L2 colon,> 100 µM
same,TGI,SN12C renal,> 100 µM
same,TGI,IGROV1 ovarian,> 100 µM
same,TGI,HT29 colon,> 100 µM
same,TGI,LXFL 529 NSCLC,> 100 µM
same,TGI,COLO 205 colon,> 100 µM
same,TGI,OVCAR-4 ovarian,> 100 µM
same,TGI,A498 renal,> 100 µM
same,TGI,OVCAR-5 ovarian,> 100 µM
same,TGI,SW-620 colon,> 100 µM
same,TGI,SK-OV-3 ovarian,> 100 µM
same,TGI,LOX IMVI melanoma,> 100 µM
same,TGI,OVCAR-3 ovarian,> 100 µM
same,TGI,KM12 colon,> 100 µM
same,TGI,NCI-H522 lung,> 100 µM
same,TGI,UACC-257 melanoma,> 100 µM
same,TGI,SNB-19 CNS,> 100 µM
same,TGI,DLD-1 colon,> 100 µM
same,TGI,SF-539 CNS,> 100 µM
same,TGI,TK-10 renal,> 100 µM
same,TGI,SR leukemia,> 100 µM
same,TGI,UACC-62 melanoma,> 100 µM
